Test results reported in paper PMC4122495, “Small Molecule Deubiquitinase Inhibitors Promote Macrophage Anti-Infective Capacity” (PLoS ONE, 2014).
Converted amounts (≈) assume the structure as drawn. “Also recorded” adds a separate entry of the source. Read-outs that look alike come from different tables or passages of the source.

Experiments:
[1] = test system: L. monocytogenes; experiment: L. monocytogenes intracellular growth assay in RAW264.7 macrophages; format: cell-based, Listeria monocytogenes 10403S; set-up: decrease in Listeria intracellular viability: concentration or dose not given beside the values; details: for decrease in Listeria intracellular viability: RAW264.7 pre-treated at each compound's working condition (Fig. 2B, 5B); for decrease in Listeria intracellular viability / effect on L.m. intracellular growth (in words) / Decrease intracellular listeria viability (%): 8 h post-infection; for decrease in Listeria intracellular viability / Decrease intracellular listeria viability (%): vs DMSO; for effect on L.m. intracellular growth (in words): RAW264.7 pre-treated with compound; for EC50: Listeria monocytogenes, RAW264.7 pre-treated with varying concentrations, then infected (MOI 1), intracellular CFU at 8 h post-infection, non-linear regression; for Decrease intracellular listeria viability (%): conditions of Figure 2B and Figure 5B, maximal effective drug concentration used
Experimental: RAW264.7 cells were cultured at an initial density of 4×10^6 cells per 24-well plate and allowed to adhere overnight. Macrophages were treated with 2.5 or 5 µM of DUB inhibitors dissolved in dimethyl sulfoxide (DMSO) for 0.5 or 1 h or with equivalent volume of DMSO (vehicle control) at 37°C. For dose-response curves, macrophages were incubated with 5, 2.5, 1 and 0.5 µM of compounds 1, 3 and 4 or 2.5, 2, 1 and 0.5 µM of compounds 2 and 9 for 0.5 h or 1 h at 37°C. DUB inhibitors were removed from cell culture prior to infection by changing the medium. Macrophages were infected with L. monocytogenes at a multiplicity of infection (MOI) of 1 for 0.5 h at 37°C. The inoculum was removed by washing infected cells three times with Dulbecco’s phosphate-buffered saline (PBS), and the cells were incubated in medium containing 10 µg/ml of gentamicin to kill extracellular bacteria for the duration of the experiment. At 8 h post-infection, cells were lysed in 1 ml 0.1% Triton X-100, serially diluted and plated on Luria-Bertani (LB) agar to enumerate the number of colony forming units (CFU). CFU were counted using the Acolyte SuperCount (Microbiology International, Frederick, MD) plate reader and software. Results were normalized to DMSO-treated cells.
Supplementary file pone.0104096.s001.tif: Figure S1 Dose-response curves for selected compounds. RAW264.7 cells were incubated with DMSO (equivalent volume) or the varying concentrations of WP1130-derivatives for 0.5 h (compounds 1, 2, 4 and 9) or 1 h (compound 3). After incubation, the medium was removed, and cells were infected at 37°C for 0.5 h at an MOI of 1 with L. monocytogenes in the absence of additional drugs. Following the 0.5 h infection, cells were washed and gentamycin (10 µg/ml) was added to kill extracellular bacteria. Intracellular bacteria were enumerated at 8 h post-infection. The data represent percent of Listeria intracellular growth compared to DMSO-treated cells from three independent experiments performed in triplicate. Non-linear regression curves were performed using the GraphPad Prism software. (TIF) Click here for additional data file.

[2] = test system: RAW264.7 cells; experiment: WST-1 cell viability assay, conditions mimicking the bacterial infection protocol; format: cell-based, murine; details: then 8 h
Experimental: For cell viability assays in conditions that mimicked the bacterial infection protocol, RAW264.7 cells were cultured at an initial density of 4×10^6 cells per 96-well plate. Cells were treated with 2.5 or 5 µM DUB inhibitors dissolved in DMSO for 0.5 h or 1 h or with equivalent volume of DMSO. DUB inhibitors were removed after treatment by washing three times with PBS, and cells were incubated in culture media for 6.5 h at 37°C. The WST-1 reagent (Roche, San Francisco, CA), which measures mitochondrial dehydrogenase activity, was diluted 1 in 10 in media and cells were incubated at 37°C for an additional 1.5 h. The optical density at 440 nm (OD440) and 600 nm (OD600) was determined and results were normalized to DMSO-treated cells.

[3] = test system: L. monocytogenes; experiment: Bacterial growth curve in BHI broth culture; format: cell-based, Listeria monocytogenes 10403S; details: 5 µM in BHI broth; for effect on Listeria growth in broth culture: absence of host cells, up to 8 h
Experimental: For bacterial growth curve in broth culture, an overnight culture of L. monocytogenes was back-diluted 1∶50 into BHI broth in the presence of 5 µM of compounds 1 to 4, 2.5 µM of compound 9 or equivalent volume of DMSO and incubated statically at 30°C for up to 8 h. At indicated time points (0, 2, 4, 6 and 8 h), a 50 µl-aliquot of bacteria was serially diluted and plated on LB agar to determine the number of CFU. To test the bactericidal properties of compound 9, an overnight culture of L. monocytogenes was back-diluted 1∶50 into BHI broth and allowed to grow at 37°C with shaking until an optical density at 600 nm (OD600) of ∼0.6–0.7 was obtained. Bacteria were then exposed to 1, 2.5 or 5 µM of compound 9 or equivalent volume of DMSO for 2 h at 4°C. After incubation, bacteria were serially diluted and plated on LB agar to determine CFU.

[4] = test system: MNV-1; set-up: method as in PMID 22792064; details: pre-treatment of RAW264.7 cells; cited from earlier work
[5] = Aqueous kinetic solubility; format: physicochemical; details: aqueous (not further specified)
[6] = test system: USP9x; set-up: method as in Donato, N. J., manuscript in preparation; details: cell-based assay; ref Donato, N. J., manuscript in preparation; read-out: IC50 against USP9x; cited from earlier work
[7] = test system: L. monocytogenes; set-up: method as in PMID 21911458; details: absence of host cells; cited from earlier work

For `CCC(NC(=O)/C(C#N)=C/c1cccc(Br)n1)c1ccc(O)cc1` (centres unmarked) [Compound 5], the “decrease in Listeria intracellular viability” value [1] was 25.4%, the “effect on L.m. intracellular growth (in words)” value (shortened to “effect … (in words)”) [1] was “Decrease L.m. intracellular growth” and the “cellular toxicity (WST-1 viability)” value ([2]; 5 µM, 1 h pre-treatment) was “no significant toxicity”.

For `CCCC(NC(=O)/C(C#N)=C/c1cccc(F)n1)c1ccc(OCCN2CCOCC2)cc1` (centres unmarked) [Compound 6], the “effect … (in words)” value [1] was “No effect on L.m. intracellular growth”, the “effect … (in words)” value ([1]; listed as compound 6) was “no significant effect on Listeria intracellular growth; also recorded: complete loss of activity” and the “cellular toxicity (WST-1 viability)” value ([2]; 5 µM, 1 h pre-treatment) was “no significant toxicity”.

With `CCC[C@H](NC(=O)/C(C#N)=C/c1cccc(Cl)n1)c1ccccc1` [Compound 1] the EC50 [1] was 1.1 µM, the “decrease in Listeria intracellular viability” value [1] was 54.7% and the “effect … (in words)” value [1] was “Decrease L.m. intracellular growth”. For the same molecule, the “Decrease intracellular listeria viability (%)” value [1] was 54.7%, the “effect on total CFU per ml by 8 h in broth culture” value [3] was “without affecting the total number of colony forming unit (CFU) per ml by 8 h” and the “effect on Listeria growth in broth culture” value (shortened to “effect on Listeria growth”) [3] was “slight decrease in growth rate”.

In the case of `CCC[C@@H](NC(=O)/C(C#N)=C/c1cccc(Br)n1)c1ccccc1` [Compound 2], the EC50 [1] is reported as 1.76 µM, the “decrease in Listeria intracellular viability” value [1] is reported as 44% and the “effect … (in words)” value [1] is reported as “Decrease L.m. intracellular growth”. For the same molecule, the “Decrease intracellular listeria viability (%)” value [1] was 44.0%, the “effect on total CFU per ml by 8 h in broth culture” value [3] was “without affecting the total number of colony forming unit (CFU) per ml by 8 h” and the “effect on Listeria growth” value [3] was “slight decrease in growth rate”. For the same molecule, the “cellular toxicity (WST-1 viability)” value ([2]; pre-treatment 0.5 or 1 h, led to working concentration of 2.5 µM for 0.5 h) was “slight increase in toxicity”.

In the case of `CCC[C@H](NC(=O)/C=C/c1cccc(Br)n1)c1ccccc1` [Compound 8], the “effect … (in words)” value [1] is reported as “No effect on L.m. intracellular growth”, the “effect … (in words)” value ([1]; listed as compound 8) is reported as “no significant effect on Listeria intracellular growth; also recorded: no activity” and the “cellular toxicity (WST-1 viability)” value ([2]; 5 µM, 1 h pre-treatment) is reported as “no significant toxicity”.

For `CCC[C@H](NC(=O)/C(C#N)=C/c1cccc(Br)n1)c1ccccc1` [WP1130, reference compound], the “decrease in Listeria intracellular viability” value [1] is given as 69.9%, the “effect … (in words)” value [1] is given as “Decrease L.m. intracellular growth” and the “average decrease in MNV-1 titers compared to DMSO vehicle control” value [4] is given as 2.0 log. For the same molecule, the solubility kinetic [5] was 3.2 µM (≈ 1.23 µg/mL), the IC50 [6] was 6.6 µM and the “effect on Listeria growth” value [7] was “no effect”.

With `CCC[C@H](NC(=O)/C(C#N)=C/c1cccc(F)n1)c1ccccc1` [Compound 4] the EC50 [1] was 2.88 µM, the “decrease in Listeria intracellular viability” value [1] was 29.2% and the “effect … (in words)” value [1] was “Decrease L.m. intracellular growth”. The “Decrease intracellular listeria viability (%)” value [1] was 29.2% and the “effect on Listeria growth” value [3] was “no effect”.

With `CCCC(NC(=O)/C(C#N)=C/c1cccc(Br)n1)c1ccc(OCOC)cc1` (centres unmarked) [Compound 3] the “decrease in Listeria intracellular viability” value [1] was 39.9%, the “effect … (in words)” value [1] was “Decrease L.m. intracellular growth” and the “Decrease intracellular listeria viability (%)” value [1] was 39.9%. The “effect on Listeria growth” value [3] was “slight decrease in the in vitro growth” and the “cellular toxicity (WST-1 viability)” value ([2]; 5 µM, 1 h pre-treatment) was “no significant toxicity”.

In the case of `CCCC(NC(=O)/C(C#N)=C/c1cccnc1F)c1ccc(OCCN2CCOCC2)cc1` (centres unmarked) [Compound 7], the “effect … (in words)” value [1] is reported as “No effect on L.m. intracellular growth”, the “effect … (in words)” value ([1]; listed as compound 7) is reported as “no significant effect on Listeria intracellular growth; also recorded: complete loss of activity” and the “cellular toxicity (WST-1 viability)” value ([2]; 5 µM, 1 h pre-treatment) is reported as “no significant toxicity”.
